Measurements: patent US20180117043A1, “USE OF SRC PROTEIN INHIBITOR IN THE MANUFACTURE OF A MEDICAMENT FOR THE PROPHYLAXIS AND/OR TREATMENT OF ALZHEIMER'S DISEASE” (JenKem Technology Co., Ltd. (Beijing), priority 2015, published 2018)

Experiments:
[1] = system: transgenic fruit flies and double transgenic mice expressing Aβ42; conditions: cited from earlier work; for treatment of Aβ42-induced memory loss: transgenic fruit flies and double transgenic mice expressing Aβ42, WO2012/103282; for curative effect in screening: compounds screened in WO2012/103282
[2] = system: primary isolated fetal mouse cerebral cortical neuron; assay: Neuroprotective activity assay against Aβ42 oligomer toxicity, cell viability detected with WST-8; conditions: 24 h
[3] = 0.001 μM/L drug + Aβ42 10 μmol/L
[4] = 0.01 μM/L drug + Aβ42 10 μmol/L
[5] = 1000 μM/L drug + Aβ42 10 μmol/L
[6] = Aβ42 oligomer 10 μmol/L, compared with model group

CCN1CCN(Cc2ccc(-c3cc4c(N[C@H](C)c5ccccc5)ncnc4[nH]3)cc2)CC1 [AEE 788]
treatment of Aβ42-induced memory loss [1]: effective

CN(C)C/C=C/C(=O)Nc1cc2c(Nc3ccc(F)c(Cl)c3)ncnc2cc1O[C@H]1CCOC1 [BIBW 2992]
treatment of Aβ42-induced memory loss [1]: effective

Cc1c(NC(=O)OC[C@@H]2COCCN2)cn2ncnc(Nc3ccc4c(cnn4Cc4cccc(F)c4)c3)c12 [BMS-599626]
treatment of Aβ42-induced memory loss [1]: effective

CC#CC(=O)Nc1ccc2ncnc(Nc3cccc(Br)c3)c2c1 [CL-387785]
treatment of Aβ42-induced memory loss [1]: effective

C=CCNC1=C2C[C@@H](C)C[C@H](OC)[C@H](O)[C@@H](C)/C=C(\C)[C@H](OC(N)=O)[C@@H](OC)/C=C\C=C(/C)C(=O)NC(=CC1=O)C2=O [Compound 17-AAG]
treatment of Aβ42-induced memory loss [1]: effective

Cc1nc(Nc2ncc(C(=O)Nc3c(C)cccc3Cl)s2)cc(N2CCN(CCO)CC2)n1 [Compound I, N-(2-chloro-6-methylphenyl)-2-{6-[4-(3-hydroxyethyl)-1-piperazinyl]-2-methyl-4-pyrimidinylamino}-5-thiazolecarboxamide]
Mean value of cell viability based on three independent replicates ([2]; 0.001 μM drug + Aβ42 10 μmol/L): 46.65% | Cell viability data in the first independent test [2, 3]: 26.98% | Cell viability data in the second independent test [2, 3]: 54.70% | Cell viability data in the third independent test [2, 3]: 58.28% | Mean value of cell viability based on three independent replicates ([2]; 0.01 μM drug + Aβ42 10 μmol/L): 67.99% | Cell viability data in the first independent test [2, 4]: 69.31% | Cell viability data in the second independent test [2, 4]: 67.22% | Cell viability data in the third independent test [2, 4]: 67.46% | Mean value of cell viability based on three independent replicates ([2]; 0.1 μM drug + Aβ42 10 μmol/L): 71.02% | Cell viability data in the first independent test ([2]; 0.1 μM/L drug + Aβ42 10 μmol/L): 80.78% | Cell viability data in the second independent test ([2]; 0.1 μM/L drug + Aβ42 10 μmol/L): 64.25% | Cell viability data in the third independent test ([2]; 0.1 μM/L drug + Aβ42 10 μmol/L): 68.05% | Mean value of cell viability based on three independent replicates ([2]; 1.0 μM drug + Aβ42 10 μmol/L): 72.44% | Cell viability data in the first independent test ([2]; 1 μM/L drug + Aβ42 10 μmol/L): 76.90% | Cell viability data in the second independent test ([2]; 1 μM/L drug + Aβ42 10 μmol/L): 65.73% | Cell viability data in the third independent test ([2]; 1 μM/L drug + Aβ42 10 μmol/L): 74.70% | Mean value of cell viability based on three independent replicates ([2]; 10 μM drug + Aβ42 10 μmol/L): 63.20% | Cell viability data in the first independent test ([2]; 10 μM/L drug + Aβ42 10 μmol/L): 68.61% | Cell viability data in the second independent test ([2]; 10 μM/L drug + Aβ42 10 μmol/L): 56.51% | Cell viability data in the third independent test ([2]; 10 μM/L drug + Aβ42 10 μmol/L): 64.50% | Mean value of cell viability based on three independent replicates ([2]; 100 μM drug + Aβ42 10 μmol/L): 73.40% | Cell viability data in the first independent test ([2]; 100 μM/L drug + Aβ42 10 μmol/L): 74.43% | Cell viability data in the second independent test ([2]; 100 μM/L drug + Aβ42 10 μmol/L): 86.16% | Cell viability data in the third independent test ([2]; 100 μM/L drug + Aβ42 10 μmol/L): 59.62% | Mean value of cell viability based on three independent replicates ([2]; 1000 μM drug + Aβ42 10 μmol/L): 64.34% | Cell viability data in the first independent test [2, 5]: 76.72% | Cell viability data in the second independent test [2, 5]: 63.92% | Cell viability data in the third independent test [2, 5]: 52.37% | dose span of effective concentration range relative to JKF-027 ([2]; Aβ42 oligomer 10 μmol/L): 10^4 times | effective concentration range (anti-toxic effect against Aβ42 oligomer) [2, 6]: 0.01 to 1000 µmol/L

CCOc1cc2ncc(C#N)c(Nc3ccc(F)c(Cl)c3)c2cc1NC(=O)/C=C/CN(C)C [EKB-569]
treatment of Aβ42-induced memory loss [1]: effective

CCOc1cc2ncc(C#N)c(Nc3ccc(OCc4cccc(F)c4)c(Cl)c3)c2cc1NC(=O)/C=C/CN(C)C [HKI-357]
treatment of Aβ42-induced memory loss [1]: effective

C=CCNc1c(O)cc2c(O)c1C[C@@H](C)C[C@H](OC)[C@H](O)[C@@H](C)/C=C(\C)[C@H](OC(N)=O)[C@@H](OC)/C=C\C=C(/C)C(=O)N2 [IPI-504]
treatment of Aβ42-induced memory loss [1]: effective

N#C/C(=C\c1ccc(-c2cc(C(=O)O)ccc2Cl)o1)C(=O)Nc1ccc(F)cc1 [JKF-006]
curative effect in screening [1]: preferable curative effect | treatment of Aβ42-induced memory loss [1]: effective

N#C/C(=C\c1ccc(N2CCOCC2)o1)C(=O)NCCc1c[nH]c2ccccc12 [JKF-027]
curative effect in screening [1]: preferable curative effect | treatment of Aβ42-induced memory loss [1]: effective | Mean value of cell viability based on three independent replicates ([2]; 0.01 μM drug + Aβ42 10 μmol/L): 46.83% | Cell viability data in the first independent test [2, 4]: 49.59% | Cell viability data in the second independent test [2, 4]: 45.88% | Cell viability data in the third independent test [2, 4]: 45.00% | Mean value of cell viability based on three independent replicates ([2]; 0.1 μM drug + Aβ42 10 μmol/L): 61.39% | Cell viability data in the first independent test ([2]; 0.1 μM/L drug + Aβ42 10 μmol/L): 77.44% | Cell viability data in the second independent test ([2]; 0.1 μM/L drug + Aβ42 10 μmol/L): 48.40% | Cell viability data in the third independent test ([2]; 0.1 μM/L drug + Aβ42 10 μmol/L): 58.33% | Mean value of cell viability based on three independent replicates ([2]; 1.0 μM drug + Aβ42 10 μmol/L): 65.31% | Cell viability data in the first independent test ([2]; 1 μM/L drug + Aβ42 10 μmol/L): 61.59% | Cell viability data in the second independent test ([2]; 1 μM/L drug + Aβ42 10 μmol/L): 61.01% | Cell viability data in the third independent test ([2]; 1 μM/L drug + Aβ42 10 μmol/L): 73.33% | Mean value of cell viability based on three independent replicates ([2]; 10 μM drug + Aβ42 10 μmol/L): 77.28% | Cell viability data in the first independent test ([2]; 10 μM/L drug + Aβ42 10 μmol/L): 87.60% | Cell viability data in the second independent test ([2]; 10 μM/L drug + Aβ42 10 μmol/L): 69.75% | Cell viability data in the third independent test ([2]; 10 μM/L drug + Aβ42 10 μmol/L): 74.50% | Mean value of cell viability based on three independent replicates ([2]; 100 μM drug + Aβ42 10 μmol/L): 40.52% | Cell viability data in the first independent test ([2]; 100 μM/L drug + Aβ42 10 μmol/L): 51.83% | Cell viability data in the second independent test ([2]; 100 μM/L drug + Aβ42 10 μmol/L): 46.89% | Cell viability data in the third independent test ([2]; 100 μM/L drug + Aβ42 10 μmol/L): 22.83% | Mean value of cell viability based on three independent replicates ([2]; 1000 μM drug + Aβ42 10 μmol/L): 21.89% | Cell viability data in the first independent test [2, 5]: 27.85% | Cell viability data in the second independent test [2, 5]: 18.66% | Cell viability data in the third independent test [2, 5]: 19.17% | effective concentration range (anti-toxic effect against Aβ42 oligomer) [2, 6]: 0.1 to 10 µmol/L | optimum anti-toxic concentration [2, 6]: 0.1 to 10 µmol/L

COc1cc2c(Nc3ccc(Cl)c(Cl)c3F)ncnc2cc1OC[C@@H]1C[C@@H]2CN(C)C[C@@H]2C1 [XL647]
treatment of Aβ42-induced memory loss [1]: effective

COc1cc2c(Nc3ccc(Br)cc3F)ncnc2cc1OCC1CCN(C)CC1 [ZD-6474]
treatment of Aβ42-induced memory loss [1]: effective
